The values below come from US20220125051A1, “PRE-HARVEST DESICCATION METHOD” (SYNGENTA CROP PROTECTION AG, priority 2019, published 2022).

Common to all, as to type: in vivo
The test system of experiment [1] is Amaranthus palmeri (AMAPA). Description: Post-emergence efficacy, Method A. To be noted: Amaranthus palmeri, post-emergence, 312 h, evaluated after 13 days. An outline of the steps: (§1)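 Plants raised 14 days from seed in standard soil in a glasshouse (24/16 °C day/night, 14 h light, 65% humidity) were sprayed with compound dissolved in acetone plus IF50 solvent/emulsifier (50 g/l solution), diluted with 0.25% or 1% Empicol ESC70 + 1% ammonium sulphate. Damage was scored visually after 13 days (0 = none, 100 = total).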

Experiment [2] concerns Chenopodium album (CHEAL). The experiment in a line: Post-emergence efficacy, Method A. To be noted: Chenopodium album, post-emergence, 312 h, evaluated after 13 days. In short, it runs like this:
as §1

Experiment [3] deals with Digitaria sanguinalis (DIGSA). The experiment in a line: Post-emergence efficacy, Method A. The following applies: Digitaria sanguinalis, post-emergence, 312 h; Application rate 500 g/Ha; evaluated after 13 days; 100=total damage to plant, 0=no damage to plant; read-out: Control of weed species after post-emergence application, DIGSA. In short, it runs like this:
as §1

Experiment [4] has as its system Echinochloa crus-galli (ECHCG). The experiment in a line: Post-emergence efficacy, Method A. The following applies: Echinochloa crus-galli, post-emergence, 312 h; Application rate 500 g/Ha; evaluated after 13 days; 100=total damage to plant, 0=no damage to plant; read-out: Control of weed species after post-emergence application, ECHCG. In short, it runs like this: as §1

Experiment [5] concerns Eleusine indica (ELEIN). The experiment in a line: Post-emergence efficacy, Method A. To be noted: Eleusine indica, post-emergence, 312 h, evaluated after 13 days. An outline of the steps: as §1
Experiment [6] concerns Euphorbia heterophylla (EPHHL). The experiment in a line: Post-emergence efficacy, Method A. To be noted: Euphorbia heterophylla, post-emergence, 312 h, evaluated after 13 days. An outline of the steps: as §1
For experiment [7], the system named is Ipomoea hederacea (IPOHE). Description: Post-emergence efficacy, Method A. To be noted: Ipomoea hederacea, post-emergence, 312 h, Application rate 500 g/Ha; evaluated after 13 days; 100=total damage to plant, 0=no damage to plant; read-out: Control of weed species after post-emergence application, IPOHE. In short, it runs like this: as §1
Experiment [8] concerns Lolium perenne (LOLPE). Description: Post-emergence efficacy, Method A. The following applies: Lolium perenne, post-emergence, 312 h, Application rate 500 g/Ha; evaluated after 13 days; 100=total damage to plant, 0=no damage to plant; read-out: Control of weed species after post-emergence application, LOLPE. In short, it runs like this:
as §1

Experiment [9] relates to Setaria faberi (SETFA). The experiment in a line: Post-emergence efficacy, Method A. The following applies: Setaria faberi, post-emergence, 312 h; Application rate 500 g/Ha; evaluated after 13 days; 100=total damage to plant, 0=no damage to plant; read-out: Control of weed species after post-emergence application, SETFA. In short, it runs like this:
as §1

In experiment [10] the test system is Amaranthus retroflexus (AMARE). Description: Post-emergence efficacy, Method B. The following applies: read-out: Control of weed species after post-emergence application, AMARE. The protocol: (§2) An “instant formulation”, known as the IF50, containing 50 g/L of the “technical” (i.e. unformulated) active ingredient was prepared by dissolving the active ingredient in a mixture of organic solvents and emulsifier, details of which are provided in the table. This IF50 was then mixed with a small, variable amount of acetone to aid dissolution, before addition of an aqueous solution of 1% v/v ammonium sulphate+1% v/v Empicol ESC70 (Sodium lauryl ether sulphate) adjuvant, as the aqueous diluent, to form an aqueous spray solution which contains a predetermined concentration of the active ingredient (which varies depending on the application rate of the active ingredient to the plants).
(§3) This aqueous spray solution was then sprayed onto the plants, after about 12 days' cultivation. The plants were grown from seeds sown in standard soil, placed in a glasshouse under controlled conditions (at 24/18° C. or 20/16° C., day/night; 16 hours light; 65% humidity). After spray application the plants were then grown on in a glasshouse under the same conditions and watered twice daily. […] the test was evaluated (100=total damage to plant; 0=no damage to plant).
(§4) Ipomoea hederacea (IPOHE), Euphorbia heterophylla (EPHHL), Chenopodium album (CHEAL), Amaranthus retroflexus (AMARE), Lolium perenne (LOLPE), Digitaria sanguinalis (DIGSA), Eleusine indica (ELEIN), Echinochloa crus-galli (ECHCG), Setaria faberi (SETFA)

Experiment [11] has as its system Chenopodium album (CHEAL). Description: Post-emergence efficacy, Method B. The following applies: read-out: Control of weed species after post-emergence application, CHEAL. The procedure: as §2, §3, §4
In experiment [12] the test system is Digitaria sanguinalis (DIGSA). The experiment in a line: Post-emergence efficacy, Method B. To be noted: read-out: Control of weed species after post-emergence application, DIGSA. The protocol:
as §2, §3, §4

Experiment [13] deals with Echinochloa crus-galli (ECHCG). The experiment in a line: Post-emergence efficacy, Method B. The following applies: read-out: Control of weed species after post-emergence application, ECHCG. The protocol:
as §2, §3, §4

In experiment [14] the test system is Eleusine indica (ELEIN). The experiment in a line: Post-emergence efficacy, Method B. To be noted: read-out: Control of weed species after post-emergence application, ELEIN. The procedure:
as §2, §3, §4

The test system of experiment [15] is Euphorbia heterophylla (EPHHL). Description: Post-emergence efficacy, Method B. The following applies: read-out: Control of weed species after post-emergence application, EPHHL. The procedure:
as §2, §3, §4

Experiment [16] has as its system Ipomoea hederacea (IPOHE). Description: Post-emergence efficacy, Method B. The following applies: read-out: Control of weed species after post-emergence application, IPOHE. The protocol:
as §2, §3, §4

Experiment [17] deals with Lolium perenne (LOLPE). Description: Post-emergence efficacy, Method B. The following applies: read-out: Control of weed species after post-emergence application, LOLPE. The protocol:
as §2, §3, §4

In experiment [18] the test system is Setaria faberi (SETFA). The experiment in a line: Post-emergence efficacy, Method B. The following applies: read-out: Control of weed species after post-emergence application, SETFA. The protocol:
as §2, §3, §4

Where [19] appears, read: Method B, 500 g/Ha, 100=total damage to plant, 0=no damage.

Like-named read-outs stand apart in the source and are kept apart here.

As for `O=S(=O)([O-])CC[n+]1ccc(-c2ccncn2)cn1` [Compound A4], the pest or weed control at 500 g/ha in experiment [1] (Application rate 500 g/Ha, 100=total damage to plant, 0=no damage to plant, read-out: Control of weed species after post-emergence application, AMAPA) was 100%; in experiment [2] (Application rate 500 g/Ha, 100=total damage to plant, 0=no damage to plant, read-out: Control of weed species after post-emergence application, CHEAL), 80%; in experiment [3], 80%; in experiment [4], 60%; with Eleusine indica (ELEIN) [5] (Application rate 500 g/Ha, 100=total damage to plant, 0=no damage to plant, read-out: Control of weed species after post-emergence application, ELEIN) it was 100%; in [6] (Application rate 500 g/Ha, 100=total damage to plant, 0=no damage to plant, read-out: Control of weed species after post-emergence application, EPHHL), 100%. The pest or weed control at 500 g/ha turned out to be 90% in experiment [7]; 100% in the experiment on Lolium perenne (LOLPE) [8]; 60% in the experiment on Setaria faberi (SETFA) [9]; 100% in experiment [10] (setting [19]); 80% in [11] (setting [19]); 100% in [12] (setting [19]). Also, the pest or weed control at 500 g/ha in [13] (setting [19]) was 70%; with Eleusine indica (ELEIN) [14] (setting [19]), 80%; in experiment [15] (setting [19]) it was 100%; in [16] (setting [19]) it was 100%; in the experiment on Lolium perenne (LOLPE) [17] (setting [19]), 90%; in the experiment with Setaria faberi (SETFA) [18] (setting [19]), 40%.
Consider `N[C@H](CC[n+]1ccc(-c2ncccn2)cn1)C(=O)O` [Compound A207, [(1R)-1-carboxy-3-(4-pyrimidin-2-ylpyridazin-1-ium-1-yl)propyl]ammonium 2,2,2-trifluoroacetate], for which the pest or weed control at 500 g/ha in experiment [1] (Application Rate 500 g/Ha, Method A, read-out: Control of weed species after post-emergence application, AMAPA (100=total damage to plant; 0=no damage to plant)) worked out at 100%; in experiment [2] (Application Rate 500 g/Ha, Method A, read-out: Control of weed species after post-emergence application, CHEAL (100=total damage to plant; 0=no damage to plant)) it was 100%; with Eleusine indica (ELEIN) [5] (Application Rate 500 g/Ha, Method A, read-out: Control of weed species after post-emergence application, ELEIN (100=total damage to plant; 0=no damage to plant)), 100%; in [6] (Application Rate 500 g/Ha, Method A, read-out: Control of weed species after post-emergence application, EPHHL (100=total damage to plant; 0=no damage to plant)), 90%. Further, the pest or weed control at 1000 g/ha in experiment [10] is 100%; in [11], 90%; in [12], 90%; in [13], 100%; in the experiment with Eleusine indica (ELEIN) [14] it was 100%; in [15], 70%. Further, the pest or weed control at 1000 g/ha was determined as 100% in experiment [16], 20% with Lolium perenne (LOLPE) [17] and 100% with Setaria faberi (SETFA) [18].
`N[C@@H](CCC[n+]1ccc(-c2ncccn2)cn1)C(=O)O` [Compound A211, [(1S)-1-carboxy-4-(4-pyrimidin-2-ylpyridazin-1-ium-1-yl)butyl]ammonium dichloride]: the pest or weed control at 500 g/ha in [10] was found to be 100%; in [11], 90%; in experiment [12], 100%; in [13], 100%; in the experiment on Eleusine indica (ELEIN) [14], 100%; in experiment [15] it was 80%. For the same compound, the pest or weed control at 500 g/ha in [16] came to 100%; in the experiment with Lolium perenne (LOLPE) [17], 10%; in the experiment on Setaria faberi (SETFA) [18] it was 100%.
Take `O=S(=O)([O-])CC[n+]1ccc(-c2cccnn2)cn1` [Compound A213, 2-(4-pyridazin-1-ium-3-ylpyridazin-1-ium-1-yl)ethanesulfonate chloride]: the pest or weed control at 1000 g/ha is 100% in experiment [10]; 80% in experiment [11]; 100% in experiment [12]; 100% in [13]; 100% in the experiment with Eleusine indica (ELEIN) [14]; 100% in experiment [15]. In addition, the pest or weed control at 1000 g/ha amounted to 80% in [16], 90% in the experiment with Lolium perenne (LOLPE) [17] and 100% with Setaria faberi (SETFA) [18].
